What was measured:
[1] = test system: pET3a-THI0 E. coli lysate (truncated Bay 12:0-ACP thioesterase); test: Acyl-ACP hydrolysis by lysate of E. coli expressing truncated Bay thioesterase cDNA; type: biochemical, Umbellularia californica; details: 1 hour induction with 1mM IPTG
Procedure: (§1) To assay for C12 thioesterase activity the following mixture is incubated at 30° for 30 min: "buffer" comprising 7mM KH2PO4-KOH pH 8, 20% v/v glycerol, 1mM dithiothreitol (DTT), 0.1% v/v Triton X100; sample to be tested for activity in the same or similar buffer as the "extraction buffer" described in Example 2; and 5µl of ^14C-radiolabeled lauroyl-ACP substrate for a total volume of 100µl and final lauroyl-ACP concentration of 0.5µM. Lauroyl-ACP substrate is prepared according to the method of Rock et al (Methods in Enzymology (1981) 72:397-403), using ACP prepared from Escherichia coli by the method of Rock and Cronan (Methods in Enzymology (1981) 71:341-351). The laurate is radiolabeled in the carboxylate group at a specific radioactivity of 50-60µCi/µmol.
(§2) The reaction is stopped by adding 0.5ml cold (0°) 10% v/v acetic acid. The fatty acid product of the hydrolytic enzyme action is extracted away from the unhydrolyzed substrate by adding 1ml diethyl ether and mixing vigorously. After settling for a few minutes the upper ether layer is transferred to 5ml scintillation fluid for determination of radioactivity by liquid scintillation spectrometry. Additional ether extractions may be performed to recover remaining traces of the reaction product for more accurate quantitation of the enzyme activity if desired. The amount of ether-extracted radioactivity is a direct measure of C12-preferring acyl-ACP thioesterase activity, provided the amount of enzyme is not sufficient to hydrolyze more than about 25% of the substrate. With greater activity than this the relationship between radioactivity in the ether layer and the quantity of enzyme becomes markedly nonlinear. The enzyme preparation must then be diluted appropriately to bring the activity into the linear range of the assay.
(§3) A pET3a vector (Rosenberg, et al., Gene (1987) 56:125-135) is used in an E. coil strain BL21 (PE3) (Studier and Moffat, J. Mol. Biol. (1986) 189:113-130) host for this study. The pET3a vector contains a promoter and 33 bp of the 5' reading frame of bacteriophase T7. T7 polymerase is under the regulatory control of an isopropyl-b-D-thiogalactopyranoside (IPTG)-inducible lac UV5 promoter found in the E. coli BL21 (DE3) strain. Thus, by the addition of IPTG to E. coli BL21 (DE3) transformed with pET3a, the T7 promoter will be activated.
(§4) Constructs are prepared containing the truncated cDNA of Fig. 2 fused in reading frame by deletion of the BamHI/EcoRI fragment and replacement of the thioesterase sequence. E. coli are transformed with pET3a constructs containing the thioesterase (pET3a-THI0) and unmodified pET3a as a control. The E. coli are grown at 37°C in liquid medium and expression is induced by the addition of 1mM IPTG. […]

[2] = test system: pET3a control E. coli lysate; test: Acyl-ACP hydrolysis by control E. coli lysate (unmodified pET3a); type: biochemical; details: 1 hour induction with 1mM IPTG
Procedure: as §1, §2, §3, §4

[3] = test system: control induced E. coli lysate; test: Acyl-ACP hydrolysis by control E. coli lysate (bay thioesterase gene in opposite orientation); type: biochemical; details: Dilution 1/4000, one hour induction with 0.1mM IPTG
Procedure: as §1, §2
The resulting construct, pCGN3823, and a control Bluescribe construct having the bay thioesterase gene inserted in the opposite orientation are transformed into E. coli. The E. coli cells are grown at 37°C in liquid medium and expression from the lac promoter is induced by addition of IPTG to a final concentration of 0.1mM IPTG. Following one hour of induction, cells are harvested, lysed and assayed as described above for the truncated bay thioesterase.

[4] = target: T1, bay thioesterase enzyme purified from developing seeds (Umbellularia californica, UniProt Q41635); test: Substrate analysis of bay thioesterase purified from developing seeds; type: biochemical; details: enzyme purified from developing seeds as in Example 2
T1 construct: The cotyledons from such seeds are dissected from the other seed parts and stored frozen at -70°; This comprises the source tissue for enzyme extraction; from tissue; host or cells: immature seed cotyledons of Umbellularia californica
T1 sequence (Q41635 84-382): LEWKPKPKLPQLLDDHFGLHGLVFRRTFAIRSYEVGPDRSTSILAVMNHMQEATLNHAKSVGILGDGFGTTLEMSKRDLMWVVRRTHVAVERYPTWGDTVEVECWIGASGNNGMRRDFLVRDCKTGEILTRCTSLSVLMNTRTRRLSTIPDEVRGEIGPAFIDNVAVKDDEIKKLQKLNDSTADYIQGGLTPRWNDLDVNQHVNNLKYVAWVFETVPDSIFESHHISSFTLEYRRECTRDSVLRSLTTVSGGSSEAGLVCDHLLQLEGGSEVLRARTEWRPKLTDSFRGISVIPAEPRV
Procedure: as §1, §2
The dialyzed material is then applied to a column of immobilized ACP (2.5cm diameter x 10.5cm bed height). This column is manufactured by coupling Escherichia coli ACP to cyanogen bromide-activated Sepharose 4B according to instructions supplied by the manufacturer of this column packing (Pharmacia Inc., Piscataway, NJ). The E. coli ACP is prepared as referenced in Example 1. Before use the column is equilibrated with ACP1 buffer. The dialyzed material from the cation exchange column is applied at 1-1.3ml/min, and fractions of 8ml volume are collected throughout the procedure. Fractions are assayed for C12-preferring acyl-ACP thioesterase activity, and for total protein content using a Cobmassie Blue assay method (Bio-Rad Inc., Richmond, CA, catalog no. 500-0001). A substantial amount of protein washes through the column without binding. Almost all of the C12-preferring acyl-ACP thioesterase activity binds. […]

Row | Substance | Hydrolysis Activity (mean cpm in ether extract) [1] | Hydrolysis Activity (mean cpm in ether extract) [2] | Hydrolysis Activity (mean cpm in ether extract) [3] | Hydrolysis Activity (mean cpm in ether extract) [4]
1 | 14:0-ACP | 1035 cpm | 1271 cpm | 0 cpm | 69 cpm
2 | 16:0-ACP | 1900 cpm | 2848 cpm | 13 cpm | 12 cpm
3 | decanoyl-ACP [10:0-ACP] | 621 cpm | 787 cpm | 0 cpm | 0 cpm
4 | lauroyl-ACP [12:0-ACP] | 2127 cpm | 1028 cpm | 0 cpm | 1261 cpm
